Measured values reported in BindingDB's records for patent US20240262826 (Blueprint Medicines, 2024).

Molecular target: Mast/stem cell growth factor receptor Kit (Homo sapiens, UniProt P10721)
Assay: Biochemical Phospho c-Kit Inhibition Assay
Protocol: For the PathScan phospho c-kit (Tyr719) sandwich ELISA: M-07e cells were resuspended at 2×10^6 cells/mL in phenol red free, serum-free, GM-CSF-free Iscove's Modified Dulbecco's Medium (IMDM) media with 1% Penicillin-Streptomycin. The cells were then dispensed into the wells of a U-bottom, 96-well plate at 50 uL per well using a multichannel pipet. The plate was allowed to incubate at 37° C. in a humidified tissue culture incubator for 4 hours.After 4 hours of incubation, each well was dosed with 6.25 uL of test compound at a final DMSO concentration of 0.25% for 60 min at 37° C. to generate an 8-point dose concentration series of test compounds in duplicate. Cells were then incubated for 1 hour at 37° C. in a humidified tissue culture incubator. Next, human SCF at 500 ng/mL was added to the appropriate wells at 6.25 uL/well and the plate was shaken at 450 rpm at room temperature for 10 minutes. AlphaLISA 5× Lysis Buffer supplemented with 1× protease and phosphatase inhibitor was then added at 16 uL/well. The plate was sealed with an adherent cover and shaken at 4° C. at 600 rpm for 30 minutes. After this period of lysis, the plate was stored at −80° C. When the 96-well plate containing M07e lysates was ready to be processed, the plate was brought to room temperature and 40 μl from each well was transferred to the wells of a PathScan Phospho-c-Kit (Tyr719) Sandwich ELISA plate (CST, Catalog #7298). The ELISA plate was sealed with an adherent cover and incubated for 2 hours at 37° C. Next, the wells were washed 4 times with the provided 1× Wash Buffer, and 100 uL/well of reconstituted Detection Antibody was added to each well, the plate sealed with an adherent cover, and incubated at 37° C. for 1 hour. The wash procedure was repeated and 100 uL/well of reconstituted HRP-Linked secondary antibody was added. The plate was sealed with an adherent cover and incubated at 37° C. for 1 hour. The wash procedure was repeated and 100 uL/well of TMB Substrate was added. The plate was incubated for 10 minutes at room temperature or until the positive reaction elicited a blue color in the appropriate wells. 100 uL/well of STOP solution was added and shaken gently for a few seconds a microplate reader or conventional spectrophotometer e.g., a Perkin Elmer Envision multimode plate reader, part #2105-0010.

Mast/stem cell growth factor receptor Kit, sequence (P10721 whole entry): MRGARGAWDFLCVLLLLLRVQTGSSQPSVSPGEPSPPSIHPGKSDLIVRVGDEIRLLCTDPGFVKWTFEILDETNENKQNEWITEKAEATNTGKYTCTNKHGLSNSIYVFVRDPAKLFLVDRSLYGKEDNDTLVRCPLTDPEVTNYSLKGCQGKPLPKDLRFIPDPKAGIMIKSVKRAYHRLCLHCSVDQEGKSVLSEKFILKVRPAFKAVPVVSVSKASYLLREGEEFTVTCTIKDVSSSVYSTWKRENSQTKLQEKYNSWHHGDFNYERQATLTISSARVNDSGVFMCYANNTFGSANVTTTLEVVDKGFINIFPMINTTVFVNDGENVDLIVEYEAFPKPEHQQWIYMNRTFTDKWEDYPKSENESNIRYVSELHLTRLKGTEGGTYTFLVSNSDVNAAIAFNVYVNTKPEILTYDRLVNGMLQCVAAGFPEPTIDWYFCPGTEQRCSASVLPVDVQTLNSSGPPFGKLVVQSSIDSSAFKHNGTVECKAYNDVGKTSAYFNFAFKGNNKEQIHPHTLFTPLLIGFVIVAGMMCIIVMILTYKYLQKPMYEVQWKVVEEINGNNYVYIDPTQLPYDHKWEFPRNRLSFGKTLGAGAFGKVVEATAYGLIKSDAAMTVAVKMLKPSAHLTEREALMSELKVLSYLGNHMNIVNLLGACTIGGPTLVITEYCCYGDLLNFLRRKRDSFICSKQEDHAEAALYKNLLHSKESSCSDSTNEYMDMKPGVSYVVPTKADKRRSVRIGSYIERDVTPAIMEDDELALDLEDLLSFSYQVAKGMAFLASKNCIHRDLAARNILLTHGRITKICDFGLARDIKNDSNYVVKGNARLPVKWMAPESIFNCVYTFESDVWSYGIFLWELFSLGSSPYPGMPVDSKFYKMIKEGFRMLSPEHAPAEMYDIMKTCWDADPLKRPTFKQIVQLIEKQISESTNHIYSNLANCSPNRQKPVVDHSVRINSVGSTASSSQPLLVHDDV

IC50 [nM]	Compound
1.4	Cc1ccc(-c2nnn(CCOCC(F)(F)F)n2)cc1NC(=O)c1cnn2ccc(-c3cn[nH]c3)cc12 [US20240262826, Compound 197]
8.2	Cc1cnn(-c2ccc(C)c(NC(=O)c3cnn4ccc(-c5cnn(C[C@H]6CNCCO6)c5)cc34)c2)n1 [US20240262826, Compound 205]
3.5	Cc1ccc(-c2nnn(C3CC(F)(F)C3)n2)cc1NC(=O)c1cnn2ccc(N3CC[C@H]3CO)cc12 [US20240262826, Compound 104]
7.3	O=C(Nc1cc(-c2nnn(C3CC(F)(F)C3)n2)c(Cl)cc1Cl)c1cnn2ccc(N3CCOCC3)cc12 [US20240262826, Compound 167]
1.7	COCCOC[C@@H](O)Cn1cc(-c2ccn3ncc(C(=O)Nc4cc(-c5nnn(C6CC6)n5)c(C)cc4Cl)c3c2)cn1 [US20240262826, Compound 261]
